How the values were obtained:
Format in all cases: in vivo
[1] = tested on: wild oat (Avena fatua); assay: Test C postemergence greenhouse test, plant response rating 0-100; conditions: for Plant response rating, Oat, Wild: scale 0 to 100
From the text: (§1) At the same time, plants selected from these crop and weed species and also winter barley (Hordeum vulgare), bermudagrass (Cynodon dactylon), downy bromegrass (Bromus tectorum), canarygrass (Phalaris minor), cocklebur (common cocklebur, Xanthium strumarium), woolly cupgrass (Eriochloa villosa), deadnettle (henbit deadnettle, Lamium amplexicaule), green foxtail (Setaria viridis), goosegrass (Eleusine indica), surinam grass (Brachiaria decumbens), windgrass (Apera spica-venti), chickweed (common chickweed, Stellaria media), kochia (Kochia scoparia), and wild oat (Avena fatua), were planted in pots containing Redi-Earth® planting medium (Scotts Company, 14111 Scottslawn Road, Marysville, Ohio 43041) comprising spaghnum peat moss, vermiculite, wetting agent and starter nutrients and treated with postemergence applications of test chemicals formulated in the same manner. Plants ranged in height from 2 to 18 cm (1- to 4-leaf stage) for postemergence treatments. Treated plants and controls were maintained in a greenhouse for 13 to 15 days, after which time all species were compared to controls and visually evaluated. Plant response ratings, summarized in Table C, are based on a scale of 0 to 100 where 0 is no effect and 100 is complete control. A dash (-) response means no test result.

[2] = tested on: chickweed (common chickweed, Stellaria media); assay: as above; conditions: for Plant response rating, Chickweed: scale 0 to 100
From the text: as §1

[3] = tested on: kochia (Kochia scoparia); assay: as above; conditions: for Plant response rating, Kochia: scale 0 to 100
From the text: as §1

[4] = tested on: pigweed (Amaranthus retroflexus); assay: Test C pre-/postemergence greenhouse test, plant response rating 0-100; conditions: Postemergence; for Plant response rating, Pigweed: scale 0 to 100
Outline: (§2)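 Formulated in solvent with surfactant, test chemicals were sprayed on seeded loam/sand pots and, concurrently, on young plants 2–18 cm tall. Evaluation: visual, versus controls, day 13–15.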

[5] = tested on: lambsquarters (Chenopodium album); assay: as above; conditions: Postemergence; for Plant response rating, Lambsquarters: scale 0 to 100
Outline: as §2

[6] = tested on: soybean (Glycine max); assay: as above; conditions: Postemergence; for Plant response rating, Soybean: scale 0 to 100
Outline: as §2

[7] = tested on: blackgrass (Alopecurus myosuroides); assay: as above; conditions: Postemergence; for Plant response rating (0 to 100), Blackgrass: 62 g ai/ha; for Plant response rating, Blackgrass: scale 0 to 100
Outline: as §2

[8] = tested on: corn (Zea mays); assay: as above; conditions: Postemergence; for Plant response rating, Corn: scale 0 to 100
Outline: as §2

[9] = tested on: johnsongrass (Sorghum halepense); assay: as above; conditions: Postemergence; for Plant response rating, Johnsongrass: scale 0 to 100
Outline: as §2

[10] = tested on: large (Lg) crabgrass (Digitaria sanguinalis); assay: as above; conditions: Postemergence; for Plant response rating, Crabgrass, Large: scale 0 to 100
Outline: as §2

[11] = tested on: yellow nutsedge (Cyperus esculentus); assay: as above; conditions: Postemergence; for Plant response rating, Nutsedge, Yellow: scale 0 to 100
Outline: as §2

[12] = tested on: winter wheat (Triticum aestivum); assay: as above; conditions: Postemergence; for Plant response rating, Wheat: scale 0 to 100
Outline: as §2

[13] = tested on: giant foxtail (Setaria faberii); assay: as above; conditions: Postemergence; for Plant response rating, Foxtail, Giant: scale 0 to 100
Outline: as §2

Structure (SMILES): Cn1cc(C(=O)c2cccs2)c(-c2cc(Cl)cc(Cl)c2)n1 [Compound 17]
- Plant response rating (0 to 100), Oat, Wild ([1]; 62 g ai/ha): 0
- Plant response rating (0 to 100), Oat, Wild ([1]; 125 g ai/ha): 0
- Plant response rating, Oat, Wild ([1]; 250 g ai/ha): 0
- Plant response rating, Oat, Wild ([1]; 500 g ai/ha): 0
- Plant response rating (0 to 100), Chickweed ([2]; 62 g ai/ha): 10
- Plant response rating (0 to 100), Chickweed ([2]; 125 g ai/ha): 65
- Plant response rating, Chickweed ([2]; 250 g ai/ha): 85
- Plant response rating, Chickweed ([2]; 500 g ai/ha): 85
- Plant response rating (0 to 100), Kochia ([3]; 62 g ai/ha): 30
- Plant response rating (0 to 100), Kochia ([3]; 125 g ai/ha): 50
- Plant response rating, Kochia ([3]; 250 g ai/ha): 50
- Plant response rating, Kochia ([3]; 500 g ai/ha): 55
- Plant response rating (0 to 100), Pigweed ([4]; 62 g ai/ha): 75
- Plant response rating (0 to 100), Pigweed ([4]; 125 g ai/ha): 80
- Plant response rating, Pigweed ([4]; 500 g ai/ha): 85
- Plant response rating (0 to 100), Lambsquarters ([5]; 62 g ai/ha): 15
- Plant response rating (0 to 100), Lambsquarters ([5]; 125 g ai/ha): 55
- Plant response rating, Lambsquarters ([5]; 250 g ai/ha): 80
- Plant response rating, Lambsquarters ([5]; 500 g ai/ha): 98
- Plant response rating (0 to 100), Soybean ([6]; 62 g ai/ha): 0
- Plant response rating (0 to 100), Soybean ([6]; 125 g ai/ha): 0
- Plant response rating, Soybean ([6]; 250 g ai/ha): 10
- Plant response rating, Soybean ([6]; 500 g ai/ha): 15
- Plant response rating (0 to 100), Blackgrass [7]: 0
- Plant response rating, Blackgrass ([7]; 125 g ai/ha): 0
- Plant response rating, Blackgrass ([7]; 250 g ai/ha): 0
- Plant response rating, Blackgrass ([7]; 500 g ai/ha): 5
- Plant response rating, Corn ([8]; 500 g ai/ha): 10
- Plant response rating (0 to 100), Johnsongrass ([9]; 62 g ai/ha): 0
- Plant response rating (0 to 100), Johnsongrass ([9]; 125 g ai/ha): 0
- Plant response rating, Johnsongrass ([9]; 250 g ai/ha): 10
- Plant response rating, Johnsongrass ([9]; 500 g ai/ha): 15
- Plant response rating (0 to 100), Crabgrass, Large ([10]; 62 g ai/ha): 0
- Plant response rating (0 to 100), Crabgrass, Large ([10]; 125 g ai/ha): 5
- Plant response rating, Crabgrass, Large ([10]; 250 g ai/ha): 10
- Plant response rating, Crabgrass, Large ([10]; 500 g ai/ha): 15
- Plant response rating (0 to 100), Nutsedge, Yellow ([11]; 62 g ai/ha): 0
- Plant response rating (0 to 100), Nutsedge, Yellow ([11]; 125 g ai/ha): 5
- Plant response rating, Nutsedge, Yellow ([11]; 250 g ai/ha): 5
- Plant response rating, Nutsedge, Yellow ([11]; 500 g ai/ha): 5
- Plant response rating (0 to 100), Wheat ([12]; 62 g ai/ha): 0
- Plant response rating (0 to 100), Wheat ([12]; 125 g ai/ha): 0
- Plant response rating, Wheat ([12]; 250 g ai/ha): 0
- Plant response rating, Wheat ([12]; 500 g ai/ha): 0
- Plant response rating (0 to 100), Foxtail, Giant ([13]; 62 g ai/ha): 0
- Plant response rating (0 to 100), Foxtail, Giant ([13]; 125 g ai/ha): 0
- Plant response rating, Foxtail, Giant ([13]; 250 g ai/ha): 5
- Plant response rating, Foxtail, Giant ([13]; 500 g ai/ha): 10

Structure (SMILES): CCn1cc(C(=O)c2cccs2)c(-c2cc(Cl)cc(Cl)c2)n1 [Compound 18]
- Plant response rating (0 to 100), Oat, Wild ([1]; 62 g ai/ha): 0
- Plant response rating (0 to 100), Oat, Wild ([1]; 125 g ai/ha): 0
- Plant response rating, Oat, Wild ([1]; 250 g ai/ha): 0
- Plant response rating, Oat, Wild ([1]; 500 g ai/ha): 0
- Plant response rating (0 to 100), Chickweed ([2]; 62 g ai/ha): 50
- Plant response rating (0 to 100), Chickweed ([2]; 125 g ai/ha): 80
- Plant response rating, Chickweed ([2]; 250 g ai/ha): 98
- Plant response rating, Chickweed ([2]; 500 g ai/ha): 100
- Plant response rating (0 to 100), Kochia ([3]; 62 g ai/ha): 20
- Plant response rating (0 to 100), Kochia ([3]; 125 g ai/ha): 40
- Plant response rating, Kochia ([3]; 250 g ai/ha): 45
- Plant response rating, Kochia ([3]; 500 g ai/ha): 60
- Plant response rating (0 to 100), Pigweed ([4]; 62 g ai/ha): 85
- Plant response rating (0 to 100), Pigweed ([4]; 125 g ai/ha): 100
- Plant response rating, Pigweed ([4]; 250 g ai/ha): 100
- Plant response rating, Pigweed ([4]; 500 g ai/ha): 100
- Plant response rating (0 to 100), Lambsquarters ([5]; 62 g ai/ha): 60
- Plant response rating (0 to 100), Lambsquarters ([5]; 125 g ai/ha): 85
- Plant response rating, Lambsquarters ([5]; 250 g ai/ha): 85
- Plant response rating, Lambsquarters ([5]; 500 g ai/ha): 90
- Plant response rating (0 to 100), Soybean ([6]; 62 g ai/ha): 5
- Plant response rating (0 to 100), Soybean ([6]; 125 g ai/ha): 15
- Plant response rating, Soybean ([6]; 250 g ai/ha): 20
- Plant response rating, Soybean ([6]; 500 g ai/ha): 20
- Plant response rating (0 to 100), Blackgrass [7]: 0
- Plant response rating, Blackgrass ([7]; 125 g ai/ha): 0
- Plant response rating, Blackgrass ([7]; 250 g ai/ha): 0
- Plant response rating, Blackgrass ([7]; 500 g ai/ha): 0
- Plant response rating (0 to 100), Corn ([8]; 125 g ai/ha): 5
- Plant response rating, Corn ([8]; 250 g ai/ha): 10
- Plant response rating (0 to 100), Johnsongrass ([9]; 62 g ai/ha): 0
- Plant response rating, Johnsongrass ([9]; 250 g ai/ha): 0
- Plant response rating, Johnsongrass ([9]; 500 g ai/ha): 5
- Plant response rating (0 to 100), Crabgrass, Large ([10]; 62 g ai/ha): 5
- Plant response rating (0 to 100), Crabgrass, Large ([10]; 125 g ai/ha): 5
- Plant response rating, Crabgrass, Large ([10]; 250 g ai/ha): 15
- Plant response rating, Crabgrass, Large ([10]; 500 g ai/ha): 20
- Plant response rating (0 to 100), Nutsedge, Yellow ([11]; 62 g ai/ha): 0
- Plant response rating (0 to 100), Nutsedge, Yellow ([11]; 125 g ai/ha): 0
- Plant response rating, Nutsedge, Yellow ([11]; 250 g ai/ha): 5
- Plant response rating, Nutsedge, Yellow ([11]; 500 g ai/ha): 5
- Plant response rating (0 to 100), Wheat ([12]; 62 g ai/ha): 0
- Plant response rating (0 to 100), Wheat ([12]; 125 g ai/ha): 0
- Plant response rating, Wheat ([12]; 250 g ai/ha): 0
- Plant response rating, Wheat ([12]; 500 g ai/ha): 5
- Plant response rating (0 to 100), Foxtail, Giant ([13]; 62 g ai/ha): 5
- Plant response rating (0 to 100), Foxtail, Giant ([13]; 125 g ai/ha): 10
- Plant response rating, Foxtail, Giant ([13]; 250 g ai/ha): 15
- Plant response rating, Foxtail, Giant ([13]; 500 g ai/ha): 20
